Patent publication US10981926B2 (Janssen Pharmaceutica NV, priority 2016, dated 2021)

Columns and labels:
Assay type in all cases: cell-based
[1] = target: T1, wild-type Androgen Receptor (AR-wt) (Homo sapiens (Human), UniProt P10275); test: LNCaP-AR-wt AG reporter assay (agonist mode); conditions: for EC50: agonist mode, pEC50 = −Log10(EC50 in Molar), read-out: LNCaP-AR-wt AG pEC50 (converted); for Emax: maximum % stimulation (agonist response) over the tested concentration range, read-out: LNCaP-AR-wt AG MAX % Stim
[2] = target: T2, F876L mutant Androgen Receptor (AR-F876L) (Homo sapiens (Human), UniProt P10275, F877L); test: LNCaP-AR-F876L ANT reporter assay (antagonist mode); conditions: for IC50: read-out: LNCaP-AR-F876L ANT pIC50 (converted); for Emax: maximum % inhibition of R1881 control response over the tested concentration range, read-out: LNCaP-AR-F876L ANT MAX % Inh
[3] = target: T1, wild-type Androgen Receptor (AR-wt); test: LNCaP-AR-wt ANT reporter assay (antagonist mode); conditions: for IC50: read-out: LNCaP-AR-wt ANT pIC50 (converted); for Emax: maximum % inhibition of R1881 control response over the tested concentration range, read-out: LNCaP-AR-wt ANT MAX % Inh
[4] = target: T2, F876L mutant Androgen Receptor (AR-F876L); test: LNCaP-AR-F876L AG reporter assay (agonist mode); conditions: for EC50: agonist mode, pEC50 = −Log10(EC50 in Molar), read-out: LNCaP-AR-F876L AG pEC50 (converted); for Emax: read-out: LNCaP-AR-F876L AG MAX % Stim
[5] = antagonist mode, pIC50 = −Log10(IC50 in Molar)
[6] = maximum % stimulation (agonist response) over the tested concentration range

T1 sequence (P10275 whole entry): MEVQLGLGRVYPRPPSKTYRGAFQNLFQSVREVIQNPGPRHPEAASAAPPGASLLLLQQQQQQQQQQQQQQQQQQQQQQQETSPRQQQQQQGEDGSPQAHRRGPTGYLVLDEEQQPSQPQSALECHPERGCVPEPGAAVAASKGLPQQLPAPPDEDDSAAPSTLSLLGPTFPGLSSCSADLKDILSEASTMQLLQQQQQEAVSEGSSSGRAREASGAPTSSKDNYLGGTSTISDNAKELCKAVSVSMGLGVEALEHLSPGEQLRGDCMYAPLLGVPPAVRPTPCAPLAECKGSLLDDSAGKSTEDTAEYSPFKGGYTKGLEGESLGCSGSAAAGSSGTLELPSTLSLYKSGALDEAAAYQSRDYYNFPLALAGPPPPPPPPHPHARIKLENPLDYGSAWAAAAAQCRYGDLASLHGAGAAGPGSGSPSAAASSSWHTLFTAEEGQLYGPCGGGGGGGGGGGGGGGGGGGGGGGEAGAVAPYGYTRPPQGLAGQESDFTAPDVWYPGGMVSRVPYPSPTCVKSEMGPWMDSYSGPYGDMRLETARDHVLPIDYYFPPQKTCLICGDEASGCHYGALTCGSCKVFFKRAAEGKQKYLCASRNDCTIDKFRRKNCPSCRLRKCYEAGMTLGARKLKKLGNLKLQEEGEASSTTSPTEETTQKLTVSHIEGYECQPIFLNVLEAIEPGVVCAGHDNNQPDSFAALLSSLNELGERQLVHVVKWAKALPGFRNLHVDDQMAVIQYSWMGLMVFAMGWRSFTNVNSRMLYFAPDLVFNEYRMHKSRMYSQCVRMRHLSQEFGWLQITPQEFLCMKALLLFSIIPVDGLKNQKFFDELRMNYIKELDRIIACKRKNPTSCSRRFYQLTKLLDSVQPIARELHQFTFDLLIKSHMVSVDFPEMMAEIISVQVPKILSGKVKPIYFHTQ
T2 sequence (P10275 whole entry F877L): as the sequence (P10275 whole entry) above, with F877L counted along it

Compound | EC50 [1] | Emax [1] | IC50 [2, 5] | Emax [2] | IC50 [3, 5] | Emax [3] | EC50 [4] | Emax [4, 6] | LNCaP-AR-F876L AG MAX % Stim [4, 6] | LNCaP-AR-F876L ANT pIC50 [2, 5] | LNCaP-AR-wt ANT pIC50 [3, 5]
Cc1cc(N2C(=O)C3(CCC3)N(c3ccc(N4CCNC4=O)cc3)C2=S)cnc1C#N [Cpd 9, 3-Methyl-5-{5-oxo-8-[4-(2-oxoimidazolidinyl)phenyl]-7-thioxo-6,8-diazaspiro[3.4]oct-6-yl}pyridine-2-carbonitrile] | > 15100 nM | 0.1% | 575 nM | 98.4% | 1200 nM | 94.2% | > 15100 nM | 0.5% | – | – | –
CCNC(=O)n1cc(-c2ccc(N3C(=S)N(c4cnc(C#N)c(C)c4)C(=O)C34CCC4)cc2)cn1 [Cpd 10, (4-{4-[7-(6-cyano-5-methyl(3-pyridyl))-8-oxo-6-thioxo-5,7-diazaspiro[3.4]oct-5-yl]phenyl}pyrazolyl)-N-ethylcarboxamide] | > 15100 nM | 0.5% | 275 nM | 100% | 339 nM | 102% | > 15100 nM | 0.9% | – | – | –
N#Cc1ncc(N2C(=O)C3(CCC3)N(c3ccc(OC4CCSCC4)cc3)C2=S)cc1C(F)(F)F [Cpd 12, 5-[5-oxo-8-(4-thian-4-yloxyphenyl)-7-thioxo-6,8-diazaspiro[3.4]oct-6-yl]-3-(trifluoromethyl)pyridine-2-carbonitrile] | > 15100 nM | 0.5% | 117 nM | 98.5% | 661 nM | 101% | > 15100 nM | 0.7% | – | – | –
N#Cc1ncc(N2C(=O)C3(CCC3)N(c3ccc(OC4CCS(=O)(=O)CC4)cc3)C2=S)cc1C(F)(F)F [Cpd 13, 5-{8-[4-(1,1-dioxothian-4-yloxy)phenyl]-5-oxo-7-thioxo-6,8-diazaspiro[3.4]oct-6-yl}-3-(trifluoromethyl)pyridine-2-carbonitrile] | > 15100 nM | 0.5% | 363 nM | 98.1% | 537 nM | 101% | > 15100 nM | 1% | – | – | –
N#Cc1ncc(N2C(=O)C3(CCC3)N(c3ccc(OC4CCN(CCCF)CC4)cc3)C2=S)cc1C(F)(F)F [Cpd 14, 5-(5-(4-((1-(3-fluoropropyl)piperidin-4-yl)oxy)phenyl)-8-oxo-6-thioxo-5,7-diazaspiro[3.4]octan-7-yl)-3-(trifluoromethyl)picolinonitrile] | > 15100 nM | 0.4% | 234 nM | 98.4% | 562 nM | 97.1% | > 15100 nM | 0.2% | – | – | –
COc1ccc(N2C(=S)N(c3cnc(C#N)c(C(F)(F)F)c3)C(=O)C23CCC3)cn1 [Cpd 15, 5-[8-(6-methoxy-3-pyridyl)-5-oxo-7-thioxo-6,8-diazaspiro[3.4]octan-6-yl]-3-(trifluoromethyl)pyridine-2-carbonitrile] | > 15100 nM | -0.1% | 191 nM | 100% | 240 nM | 101% | > 15100 nM | 1.1% | – | – | –
CN1CC[C@@H](Oc2ccc(N3C(=S)N(c4cnc(C#N)c(C(F)(F)F)c4)C(=O)C34CCC4)cc2)C1 [Cpd 16, 5-[8-[4-[(3R)-1-methylpyrrolidin-3-yl]oxyphenyl]-5-oxo-7-thioxo-6,8-diazaspiro[3.4]octan-6-yl]-3-(trifluoromethyl)pyridine-2-carbonitrile] | > 15100 nM | 0.5% | 363 nM | 97.5% | 1120 nM | 98.8% | > 15100 nM | 0.8% | – | – | –
N#Cc1ncc(N2C(=O)C3(CCC3)N(c3ccc(OC4CCCNCC4)cc3)C2=S)cc1C(F)(F)F (stereo not shown) [Cpd 17, 5-[8-(4-azaperhydroepin-4-yloxyphenyl)-5-oxo-7-thioxo-6,8-diazaspiro[3.4]oct-6-yl]-3-(trifluoromethyl)pyridine-2-carbonitrile] | > 15100 nM | 0.3% | 457 nM | 100% | 1510 nM | 98.5% | > 15100 nM | – | 0.1% | – | –
N#Cc1ncc(N2C(=O)C3(CCC3)N(c3ccc(O)nc3)C2=S)cc1C(F)(F)F [Cpd 18, 5-[8-(6-hydroxy-3-pyridyl)-5-oxo-7-thioxo-6,8-diazaspiro[3.4]octan-6-yl]-3-(trifluoromethyl)pyridine-2-carbonitrile] | > 15100 nM | 0% | – | 99% | – | 93.5% | > 15100 nM | 0% | – | 6.00 | 5.65
CN1CCCC(Oc2ccc(N3C(=S)N(c4cnc(C#N)c(C(F)(F)F)c4)C(=O)C34CCC4)cc2)CC1 (stereo not shown) [Cpd 19, 5-{8-[4-(1-methylazaperhydroepin-4-yloxy)phenyl]-5-oxo-7-thioxo-6,8-diazaspiro[3.4]oct-6-yl}-3-(trifluoromethyl)pyridine-2-carbonitrile] | > 15100 nM | 0.3% | 200 nM | 101% | 661 nM | 101% | > 15100 nM | 1.6% | – | – | –
CN1CCC[C@H](Oc2ccc(N3C(=S)N(c4cnc(C#N)c(C(F)(F)F)c4)C(=O)C34CCC4)cc2)C1 [Cpd 20, 5-{8-[4-((3S)-1-methyl(3-piperidyloxy))phenyl]-5-oxo-7-thioxo-6,8-diazaspiro[3.4]oct-6-yl}-3-(trifluoromethyl)pyridine-2-carbonitrile] | > 15100 nM | 0.2% | 513 nM | 97.7% | 1820 nM | 93.2% | > 15100 nM | -0.5% | – | – | –
Cc1cc(N2C(=O)C3(CCC3)N(c3ccc(OC4CCSCC4)nc3)C2=S)cnc1C#N [Cpd 21, 3-methyl-5-[5-oxo-8-(6-thian-4-yloxy(3-pyridyl))-7-thioxo-6,8-diazaspiro[3.4]oct-6-yl]pyridine-2-carbonitrile] | > 15100 nM | -0.1% | 309 nM | 69.9% | 501 nM | 80.6% | > 15100 nM | 0.3% | – | – | –
COc1cc(N2C(=O)C3(CCC3)N(c3ccc(OC4CCN(C)CC4)nc3)C2=S)cnc1C#N [Cpd 25] | > 15100 nM | 0% | – | 100% | – | 101% | > 15100 nM | 0.2% | – | – | –
CN1CCC(Oc2ccc(N3C(=S)N(c4cnc(C#N)c(Cl)c4)C(=O)C34CCC4)cn2)CC1 [Cpd 26] | > 15100 nM | 0.4% | 69.2 nM | 100% | 55 nM | 101% | > 15100 nM | 0.5% | – | – | –
Cc1cc(N2C(=O)C3(CCC3)N(c3ccc(OCCCN(C)C)nc3)C2=S)cnc1C#N [Cpd 27, 5-[8-[6-[3-(dimethylamino)propoxy]-3-pyridyl]-5-oxo-7-thioxo-6,8-diazaspiro[3.4]octan-6-yl]-3-methyl-pyridine-2-carbonitrile] | > 15100 nM | 0% | 107 nM | 101% | 219 nM | 101% | > 15100 nM | -0.1% | – | – | –
CC(C)(C)OC(=O)N1CCN(C(=O)c2ccc(N3C(=S)N(c4cnc(C#N)c(C(F)(F)F)c4)C(=O)C34CCC4)cc2)CC1 [Cpd 32, tert-butyl 4-[4-[6-[6-cyano-5-(trifluoromethyl)-3-pyridyl]-5-oxo-7-thioxo-6,8-diazaspiro[3.4]octan-8-yl]benzoyl]piperazine-1-carboxylate] | > 15100 nM | 0.4% | 1120 nM | 74.1% | 2140 nM | 64.9% | > 15100 nM | -0.1% | – | – | –
N#Cc1ncc(N2C(=O)C3(CCC3)N(c3ccc(O)nc3)C2=S)cc1Cl [Cpd 45, 3-chloro-5-[8-(6-hydroxy-3-pyridyl)-5-oxo-7-thioxo-6,8-diazaspiro[3.4]octan-6-yl]pyridine-2-carbonitrile] | > 15100 nM | -0.3% | 1260 nM | 99.2% | 3020 nM | 92.9% | > 15100 nM | 0% | – | – | –
CC(C)(C)OC(=O)N1CCC(CNC(=O)c2ccc(N3C(=S)N(c4cnc(C#N)c(C(F)(F)F)c4)C(=O)C34CCC4)cc2)CC1 [Cpd 46, tert-butyl 4-[[[4-[6-[6-cyano-5-(trifluoromethyl)-3-pyridyl]-5-oxo-7-thioxo-6,8-diazaspiro[3.4]octan-8-yl]benzoyl]amino]methyl]piperidine-1-carboxylate] | > 15100 nM | 1.1% | 110 nM | 97.6% | 219 nM | 101% | > 15100 nM | 0.3% | – | – | –
